One assay has as its target α4β7 integrin (Homo sapiens (Human), UniProt P13612+P26010). The assay can be described thus: Integrin Adhesion Assay: Protocol 4 (MAdCAM-coated plate, RPMI-8866 cells with stable LOF mutation of the ITGB1 gene). It is filed as cell-based. Put shortly: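 RPMI-8866 cells with CRISPR/Cas9 knockout of ITGB1 (2×10^6/mL) were added to MAdCAM-coated wells with compound (1% DMSO) in HEPES/NaCl buffer with 1 mM MnCl2, 0.1 mM CaCl2 and 1% BSA, then incubated 1 h at 37 °C. After four washes, adherent cells were quantified by CellTiter-Glo luminescence. Percent inhibition versus DMSO and control compound was fitted to 4-parameter curves.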

For a further assay, the target named is α4β1 integrin (Homo sapiens (Human), UniProt P05556+P13612). The assay can be described thus: Integrin Adhesion Assay: Protocol 5 (VCAM-coated plate, RPMI-8866 cells with stable LOF mutation of the ITGB7 gene). It is filed as cell-based. In short, it runs like this: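 RPMI-8866 B cells with CRISPR/Cas9 ITGB7 knockout (clonal, verified by flow cytometry) adhered to VCAM-coated wells for 1 h at 37° C in HEPES/NaCl buffer with 1 mM MnCl2, 0.1 mM CaCl2, 1% BSA, 1% DMSO. Bound cells quantified by CellTiter-Glo luminescence after washing; % inhibition versus DMSO and control, 4-parameter fit.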

Where [1] appears, read: RPMI-8866 cells with stable LOF mutation of the ITGB1 gene, read-out: Mean IC50 α4β7 KO^a.
Setting [2] is: RPMI-8866 cells with stable LOF mutation of the ITGB7 gene, read-out: Mean IC50 α4β1 KO^b.
The mark [3] stands for this setting: Protocol 4, RPMI-8866 cells with LOF mutation of ITGB1, MAdCAM, read-out: Mean IC50 α4β7 KO.
The mark [4] stands for this setting: Protocol 5, RPMI-8866 cells with LOF mutation of ITGB7, VCAM, read-out: Mean IC50 α4β1 KO.

We go through 39 compounds from US20250313535A1, “ALPHA 4 BETA 7 INTEGRIN MODULATORS AND USES THEREOF” (DICE MOLECULES SV, INC., priority 2022, published 2025).

Where two headings read alike, the source gives them in different places. Where only a bound is given, the exact number is not on record here.

α4β7 integrin, sequence (P13612 34-1032): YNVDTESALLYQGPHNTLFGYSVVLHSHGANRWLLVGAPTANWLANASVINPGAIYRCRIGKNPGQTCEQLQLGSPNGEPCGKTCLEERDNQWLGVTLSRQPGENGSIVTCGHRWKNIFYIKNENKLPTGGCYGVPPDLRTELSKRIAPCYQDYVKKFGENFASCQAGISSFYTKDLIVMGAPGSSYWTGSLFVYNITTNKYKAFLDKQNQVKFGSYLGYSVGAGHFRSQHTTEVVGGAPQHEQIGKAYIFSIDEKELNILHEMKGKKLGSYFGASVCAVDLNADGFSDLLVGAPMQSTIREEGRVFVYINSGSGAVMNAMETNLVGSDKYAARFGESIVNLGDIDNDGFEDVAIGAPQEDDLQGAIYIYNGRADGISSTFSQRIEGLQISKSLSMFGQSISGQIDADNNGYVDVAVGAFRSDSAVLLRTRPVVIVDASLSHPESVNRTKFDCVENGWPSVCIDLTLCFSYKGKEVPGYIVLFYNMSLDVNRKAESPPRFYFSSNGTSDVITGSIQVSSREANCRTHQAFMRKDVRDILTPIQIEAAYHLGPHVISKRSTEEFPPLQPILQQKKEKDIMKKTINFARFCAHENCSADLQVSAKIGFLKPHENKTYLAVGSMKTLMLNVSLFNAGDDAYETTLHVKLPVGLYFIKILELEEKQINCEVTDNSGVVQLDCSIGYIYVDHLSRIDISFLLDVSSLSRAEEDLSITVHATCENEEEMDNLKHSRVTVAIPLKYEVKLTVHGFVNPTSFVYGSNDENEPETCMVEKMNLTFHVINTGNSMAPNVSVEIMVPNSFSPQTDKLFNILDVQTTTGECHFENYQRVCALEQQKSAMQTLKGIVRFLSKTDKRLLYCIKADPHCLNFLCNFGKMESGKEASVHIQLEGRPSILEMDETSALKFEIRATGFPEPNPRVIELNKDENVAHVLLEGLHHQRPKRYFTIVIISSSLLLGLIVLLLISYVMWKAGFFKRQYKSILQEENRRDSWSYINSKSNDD
α4β7 integrin, sequence (P26010 20-798): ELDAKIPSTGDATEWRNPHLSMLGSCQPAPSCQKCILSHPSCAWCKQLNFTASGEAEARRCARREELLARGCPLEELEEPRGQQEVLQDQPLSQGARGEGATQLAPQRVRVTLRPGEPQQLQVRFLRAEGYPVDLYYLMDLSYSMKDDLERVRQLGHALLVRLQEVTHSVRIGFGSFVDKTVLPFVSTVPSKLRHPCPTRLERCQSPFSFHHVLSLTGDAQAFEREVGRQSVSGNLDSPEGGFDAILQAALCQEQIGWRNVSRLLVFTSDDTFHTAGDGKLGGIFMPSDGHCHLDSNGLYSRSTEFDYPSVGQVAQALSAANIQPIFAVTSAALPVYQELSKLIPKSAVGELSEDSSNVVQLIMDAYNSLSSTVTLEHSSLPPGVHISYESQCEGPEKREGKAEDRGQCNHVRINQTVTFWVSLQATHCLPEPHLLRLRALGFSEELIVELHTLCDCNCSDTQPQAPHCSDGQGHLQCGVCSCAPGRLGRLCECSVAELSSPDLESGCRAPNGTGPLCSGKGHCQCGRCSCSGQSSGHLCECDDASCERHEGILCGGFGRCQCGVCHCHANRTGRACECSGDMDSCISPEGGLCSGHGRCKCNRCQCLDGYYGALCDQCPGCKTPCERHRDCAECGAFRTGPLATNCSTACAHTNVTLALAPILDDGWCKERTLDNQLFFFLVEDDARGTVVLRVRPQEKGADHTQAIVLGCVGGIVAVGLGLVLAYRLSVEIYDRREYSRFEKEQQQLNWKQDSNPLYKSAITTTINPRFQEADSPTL
α4β1 integrin, sequence (P13612 34-1032): as the sequence (P13612 34-1032) above
α4β1 integrin, sequence (P05556 21-798): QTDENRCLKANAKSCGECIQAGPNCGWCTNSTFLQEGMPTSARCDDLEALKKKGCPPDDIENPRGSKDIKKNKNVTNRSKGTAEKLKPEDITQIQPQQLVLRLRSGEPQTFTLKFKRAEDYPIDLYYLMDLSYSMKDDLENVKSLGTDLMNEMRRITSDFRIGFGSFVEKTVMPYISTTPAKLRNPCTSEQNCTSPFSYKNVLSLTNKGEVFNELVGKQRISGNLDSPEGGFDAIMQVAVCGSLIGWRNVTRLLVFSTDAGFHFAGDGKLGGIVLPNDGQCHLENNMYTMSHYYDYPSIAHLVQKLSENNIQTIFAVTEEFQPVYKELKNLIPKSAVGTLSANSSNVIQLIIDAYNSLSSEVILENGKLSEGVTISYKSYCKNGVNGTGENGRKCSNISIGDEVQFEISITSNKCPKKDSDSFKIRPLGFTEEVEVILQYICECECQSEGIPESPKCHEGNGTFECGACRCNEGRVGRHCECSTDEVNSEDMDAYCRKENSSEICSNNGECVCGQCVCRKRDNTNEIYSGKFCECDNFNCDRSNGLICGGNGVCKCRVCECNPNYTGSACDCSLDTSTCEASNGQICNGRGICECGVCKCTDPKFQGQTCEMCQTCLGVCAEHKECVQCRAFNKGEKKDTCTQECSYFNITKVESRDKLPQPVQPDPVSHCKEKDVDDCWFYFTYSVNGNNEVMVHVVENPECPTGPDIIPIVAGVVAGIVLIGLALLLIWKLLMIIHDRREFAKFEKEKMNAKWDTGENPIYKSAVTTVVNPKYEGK

As to `O=C(O)[C@H](Cc1cccc2c(-c3ncc(CN4CCCCC4)c4ccccc34)cccc12)NC(=O)C1(C(F)(F)F)CCN(CCC(F)(F)F)CC1` [Compound 682], the IC50 on α4β7 integrin (setting [1]) is < 10 nM; at α4β1 integrin (setting [2]), > 1000 nM.
The corresponding values for `COc1ccc2ccncc2c1-c1cccc2c(C[C@H](NC(=O)C3(C(F)(F)F)CCN(CC(F)(F)F)CC3)C(=O)O)cccc12` [Compound 523] are < 10 nM and 100 to 1000 nM.
Turning to `COc1ccc(CN2CCC(F)(F)CC2)c(OC)c1-c1cccc2c(C[C@H](NC(=O)c3c(C)cc4cnn(CC(F)(F)F)c4c3F)C(=O)O)cccc12` [Compound 609], the IC50 lay in the range of 10 to 100 nM on α4β7 integrin (setting [1]) and 100 to 1000 nM on α4β1 integrin (setting [2]).
The corresponding values for `COc1ccc(CN2CCC(F)(F)CC2)c(OC)c1-c1cccc2c(C[C@H](NC(=O)C3(C(F)(F)F)CCN(C4COCC4(F)F)CC3)C(=O)O)cccc12` (single isomer, unassigned) [Compound 639] are < 10 nM and 100 to 1000 nM.
Take `O=C(O)[C@H](Cc1cccc2c(-c3ncc(CN4CCOCC45CC5)c4ccccc34)cccc12)NC(=O)C1(C(F)(F)F)CCN(CC(F)F)CC1` [Compound 914]: the IC50 at α4β7 integrin (setting [3]) was < 10 nM; at α4β1 integrin (setting [4]) it was 100 to 1000 nM.
The like results for `CC1(C)CCCN(Cc2cnc(-c3cccc4c(C[C@H](NC(=O)C5(C(F)(F)F)CCN(CC(F)F)CC5)C(=O)O)cccc34)c3ccccc23)C1` [Compound 910] were, in that order, < 10 nM and > 1000 nM.
The like results for `CN1CCC(c2cnc(-c3cccc4c(C[C@H](NC(=O)C5(C(F)(F)F)CCN(CC(F)(F)F)CC5)C(=O)O)cccc34)c(C(F)(F)F)c2)CC1` [Compound 757] were, in that order, < 10 nM and 100 to 1000 nM.
In the case of `COc1ccc(CN(C)C)nc1-c1cccc2c(C[C@H](NC(=O)c3c(C)cccc3F)C(=O)O)cccc12` [Compound 599], the IC50 at α4β7 integrin (setting [1]) was < 10 nM; at α4β1 integrin (setting [2]), 100 to 1000 nM.
Regarding `COc1cccc(CN2CCCCC2)c1-c1cccc2c(C[C@H](NC(=O)c3c(F)cccc3C(C)C)C(=O)O)cccc12` [Compound 540], the IC50 at α4β7 integrin (setting [1]) was < 10 nM; at α4β1 integrin (setting [2]), 100 to 1000 nM.
`COc1cccc(CN2CCC(C(C)(C)C)CC2)c1-c1cccc2c(C[C@H](NC(=O)c3c(C)cccc3F)C(=O)O)cccc12` [Compound 1027]: the IC50 at α4β7 integrin (setting [3]) was < 10 nM; at α4β1 integrin (setting [4]), 100 to 1000 nM.
On to `COC(=O)[C@H](Cc1cccc2c(-c3c(OC)ccc(CN4C(C)CCC4C)c3OC)cccc12)NC(=O)c1c(C)cccc1F` (stereo partly drawn) [Compound 552], for which the results for the IC50 at α4β7 integrin (setting [1]) and at α4β1 integrin (setting [2]) were < 10 nM and 100 to 1000 nM, respectively.
The corresponding values for `Cn1c(=O)c(-c2cccc3c(C[C@H](NC(=O)C4(C(F)(F)F)CCN(CC(F)F)CC4)C(=O)O)cccc23)c(C(F)(F)F)c2cc(C(F)(F)F)ccc21` [Compound 537] are 10 to 100 nM and > 1000 nM.
Take `CN(C)Cc1ccc(-c2cccc3c(C[C@H](NC(=O)C4(C(F)(F)F)CCN(CC(F)(F)F)CC4)C(=O)O)cccc23)c2cnccc12` [Compound 695]: the IC50 was < 10 nM at α4β7 integrin (setting [3]) and > 1000 nM at α4β1 integrin (setting [4]).
The corresponding values for `CC1(C)CCN(Cc2ccc(-c3cccc4c(C[C@H](NC(=O)C5(C(F)(F)F)CCN(CC(F)(F)F)CC5)C(=O)O)cccc34)c3cnccc23)CC1` [Compound 986] are < 10 nM and 100 to 1000 nM.
Take `COc1cc(CN2CCCCC2)cnc1-c1cccc2c(C[C@H](NC(=O)c3c(C)cccc3F)C(=O)O)cccc12` [Compound 1018]: the IC50 on α4β7 integrin (setting [3]) is < 10 nM; at α4β1 integrin (setting [4]), > 1000 nM.
On to `COc1ccc(CN2CCC(C)(C)CC2)c(C(F)(F)F)c1-c1cccc2c(C[C@H](NC(=O)C3(C(F)(F)F)CCN(CC(F)(F)F)CC3)C(=O)O)cccc12` [Compound 819], for which the IC50 on α4β7 integrin (setting [3]) is < 10 nM; at α4β1 integrin (setting [4]), 100 to 1000 nM.
The corresponding values for `CN1CCC(Cc2ccc3ccnc(-c4cccc5c(C[C@H](NC(=O)C6(C(F)(F)F)CCN(CC(F)(F)F)CC6)C(=O)O)cccc45)c3c2)CC1` [Compound 990] are < 10 nM and > 1000 nM.
Take `COc1cccc(CN2CCC(F)CC2)c1-c1cccc2c(C[C@H](NC(=O)c3c(C)cccc3F)C(=O)O)cccc12` [Compound 1024]: the IC50 on α4β7 integrin (setting [3]) was 10 to 100 nM; on α4β1 integrin (setting [4]), > 1000 nM.
The like results for `O=C(O)[C@H](Cc1cccc2c(-c3ccccc3OCCN3CCCCC3)cccc12)NC(=O)C1(C(F)(F)F)CCN(CC(F)(F)F)CC1` [Compound 749] were, in that order, 10 to 100 nM and > 1000 nM.
Turning to `O=C(O)[C@H](Cc1cccc2c(-c3nccc4ccc(CCCN5CCCCC5)cc34)cccc12)NC(=O)C1(C(F)(F)F)CCN([C@@H]2COCC2(F)F)CC1` [Compound 483], the IC50 at α4β7 integrin (setting [1]) is < 10 nM; on α4β1 integrin (setting [2]), > 1000 nM.
The like results for `O=C(O)[C@H](Cc1cccc2c(-c3ncc(CN4CCCCC4)c4ccccc34)cccc12)NC(=O)C1(C(F)(F)F)CCNCC1` [Compound 550] were, in that order, 10 to 100 nM and > 1000 nM.
As for `COc1cc(CN2CCCCC2)cc(C(F)(F)F)c1-c1cccc2c(C[C@H](NC(=O)C3(C(F)(F)F)CCN(CC(F)(F)F)CC3)C(=O)O)cccc12` [Compound 824], the IC50 at α4β7 integrin (setting [3]) was < 10 nM; on α4β1 integrin (setting [4]) it was > 1000 nM.
For `Cn1c(C(F)(F)F)cc(C(F)(F)F)c(-c2cccc3c(C[C@H](NC(=O)C4(C(F)(F)F)CCN(C5COC5)CC4)C(=O)O)cccc23)c1=O` [Compound 499], the IC50 on α4β7 integrin (setting [1]) was < 10 nM; at α4β1 integrin (setting [2]), 100 to 1000 nM.
With `COc1cc2ncccc2c(C)c1-c1cccc2c(C[C@H](NC(=O)C3(C(F)(F)F)CCN(CC(F)(F)F)CC3)C(=O)O)cccc12` [Compound 738], the IC50 was 10 to 100 nM at α4β7 integrin (setting [3]) and > 1000 nM on α4β1 integrin (setting [4]).
For the compound `CC(C)(C)C1CCN(Cc2cccc3c(-c4cccc5c(C[C@H](NC(=O)C6(C(F)(F)F)CCN(CC(F)(F)F)CC6)C(=O)O)cccc45)nccc23)CC1` [Compound 659], the IC50 was 10 to 100 nM on α4β7 integrin (setting [1]) and > 1000 nM at α4β1 integrin (setting [2]).
For `Cn1c(=O)c(-c2cccc3c(C[C@H](NC(=O)C4(C(F)(F)F)CCN(C5CCS(=O)(=O)CC5)CC4)C(=O)O)cccc23)c(C(F)(F)F)c2ccccc21` [Compound 505], the IC50 on α4β7 integrin (setting [1]) is 10 to 100 nM; at α4β1 integrin (setting [2]) it was > 1000 nM.
For the compound `CN(Cc1cnc(-c2cccc3c(C[C@H](NC(=O)C4(C(F)(F)F)CCN(CC(F)(F)F)CC4)C(=O)O)cccc23)c2ccccc12)CC(F)F` [Compound 922], the figures for the IC50 on α4β7 integrin (setting [3]) and at α4β1 integrin (setting [4]) were 10 to 100 nM and > 1000 nM, respectively.
As to `COc1ccc(CN2CCC2)c(OC)c1-c1cccc2c(C[C@H](NC(=O)c3c(C)cccc3F)C(=O)O)cccc12` [Compound 628], the IC50 on α4β7 integrin (setting [1]) was < 10 nM; on α4β1 integrin (setting [2]), 100 to 1000 nM.
`O=C(O)[C@H](Cc1cccc2c(-c3ncc(CN4CCCC4)c4ccccc34)cccc12)NC(=O)C1(C(F)(F)F)CCN(CC(F)F)CC1` [Compound 917]: the IC50 is < 10 nM on α4β7 integrin (setting [3]) and 100 to 1000 nM on α4β1 integrin (setting [4]).
The corresponding values for `COc1cc(CN2CCC(C)(C)CC2)cnc1-c1cccc2c(C[C@H](NC(=O)C3(C(F)(F)F)CCN(CC(F)F)CC3)C(=O)O)cccc12` [Compound 924] are < 10 nM and > 1000 nM.
Take `CCOCc1cc(CN2CCCCC2)c(-c2cccc3c(C[C@H](NC(=O)c4c(C)cccc4F)C(=O)O)cccc23)c(OC)c1` [Compound 1000]: the values for the IC50 at α4β7 integrin (setting [3]) and on α4β1 integrin (setting [4]) were < 10 nM and 100 to 1000 nM, respectively.
With `COc1ccc(CN2CCCCC2C)c(OC)c1-c1cccc2c(C[C@H](NC(=O)c3c(C)cccc3F)C(=O)O)cccc12` (stereo partly drawn) [Compound 631], the IC50 on α4β7 integrin (setting [1]) was < 10 nM; at α4β1 integrin (setting [2]) it was 100 to 1000 nM.
As to `COc1cc2c(c(C(F)(F)F)c1-c1cccc3c(C[C@H](NC(=O)C4(C(F)(F)F)CCN(CC(F)(F)F)CC4)C(=O)O)cccc13)CCN(C)C2` [Compound 726], the results for the IC50 on α4β7 integrin (setting [3]) and on α4β1 integrin (setting [4]) were < 10 nM and 10 to 100 nM, respectively.
In the case of `COc1cccc(CCN2CCCC(C)(C)C2)c1-c1cccc2c(C[C@H](NC(=O)C3(C(F)(F)F)CCN(CC(F)F)CC3)C(=O)O)cccc12` [Compound 984], the figures for the IC50 on α4β7 integrin (setting [3]) and at α4β1 integrin (setting [4]) were < 10 nM and 100 to 1000 nM, respectively.
For the compound `Cn1c(=O)c(-c2cccc3c(C[C@H](NC(=O)C4(C(F)(F)F)CCN(C5(C(F)(F)F)COC5)CC4)C(=O)O)cccc23)c(C(F)(F)F)c2ccccc21` [Compound 491], the IC50 at α4β7 integrin (setting [1]) is 100 to 1000 nM; at α4β1 integrin (setting [2]), > 1000 nM.
In the case of `Cn1c(=O)c(-c2cccc3c(C[C@H](NC(=O)C4(C(F)(F)F)CCN(CC(F)(F)F)CC4)C(=O)O)cccc23)c(C(F)(F)F)c2cc(CN3CCC(F)CC3)ccc21` [Compound 833], the IC50 on α4β7 integrin (setting [3]) was < 10 nM; on α4β1 integrin (setting [4]), 100 to 1000 nM.
For the compound `COc1cccc(OC)c1-c1cccc2c(C[C@H](NC(=O)c3c(C)cccc3F)C(=O)O)cccc12` [Compound 526], the results for the IC50 at α4β7 integrin (setting [1]) and at α4β1 integrin (setting [2]) were 10 to 100 nM and > 1000 nM, respectively.
Regarding `Cc1cc(C(F)(F)F)cc(F)c1C(=O)N[C@@H](Cc1cccc2c(-c3c(C(F)(F)F)c4cc(CN(C)C)ccc4n(C)c3=O)cccc12)C(=O)O` [Compound 700], the IC50 at α4β7 integrin (setting [3]) is 10 to 100 nM; on α4β1 integrin (setting [4]) it was > 1000 nM.
Consider `O=C(O)[C@H](Cc1cccc2c(-c3ncc(CN4CCC(C(F)(F)F)CC4)c4ccccc34)cccc12)NC(=O)C1(C(F)(F)F)CCN(C2COC2)CC1` [Compound 580], for which the results for the IC50 at α4β7 integrin (setting [1]) and at α4β1 integrin (setting [2]) were < 10 nM and > 1000 nM, respectively.

The term IC50 denotes the concentration needed to halve the response being measured.
